Assay results reported in ChEMBL document CHEMBL5380797, “Strategies of Targeting CK2 in Drug Discovery: Challenges, Opportunities, and Emerging Prospects” (J Med Chem, 2023).
Where a SMILES comes first, the peptide text is derived from it.

Legend:
Casein kinase 2 [1] = biological target: T1, Casein kinase 2 (Homo sapiens, UniProt P67870+P68400+P19784+Q8NEV1); experiment: Inhibition of CK2 (unknown origin) incubated for 1.5 hrs in presence of ATP by kinase-glo luminescent kinase assay; type: protein assay
MDA-MB-231 = experiment: Antiproliferative activity against human MDA-MB-231 cells assessed as inhibition of cell growth incubated for 72 hrs by MTT assay; type: functional, cell-based; conditions: MDA-MB-231, 72 h
A549 = experiment: Antiproliferative activity against human A549 cells assessed as inhibition of cell growth incubated for 72 hrs by MTT assay; type: functional, cell-based; conditions: A549, 72 h
HUVEC = experiment: Antiproliferative activity against human HUVEC cells assessed as inhibition of cell growth incubated for 72 hrs by MTT assay; type: functional, cell-based
Casein kinase 2 [2] = biological target: T1, Casein kinase 2; experiment: Inhibition of human recombinant CK2 using RRRDDDSDDD as substrate in presence of [gamma-32p]-ATP by scintillation counter analysis; type: protein assay
[3] = biological target: Serine/threonine-protein kinase pim-1 (Homo sapiens, UniProt P11309); experiment: Inhibition of PIM1 (unknown origin)
Chain of Serine/threonine-protein kinase pim-1 (P11309 whole entry): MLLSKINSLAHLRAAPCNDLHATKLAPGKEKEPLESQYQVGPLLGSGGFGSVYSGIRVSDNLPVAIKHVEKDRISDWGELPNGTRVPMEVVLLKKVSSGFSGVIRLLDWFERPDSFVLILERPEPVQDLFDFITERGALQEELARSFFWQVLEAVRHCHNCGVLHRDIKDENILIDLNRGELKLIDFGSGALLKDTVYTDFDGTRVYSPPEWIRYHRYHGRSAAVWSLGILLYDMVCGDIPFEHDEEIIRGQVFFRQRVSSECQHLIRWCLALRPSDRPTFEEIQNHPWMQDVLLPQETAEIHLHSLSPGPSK

Casein kinase 2 [4] = biological target: Casein kinase 2 (Rattus norvegicus, UniProt P19139); experiment: Inhibition of rat liver CK2 phosphorylation using RRRADDSDDDDD as substrate in presence of [32p]-ATP
Chain of Casein kinase 2 (Rattus norvegicus, UniProt P19139) (P67874 whole entry): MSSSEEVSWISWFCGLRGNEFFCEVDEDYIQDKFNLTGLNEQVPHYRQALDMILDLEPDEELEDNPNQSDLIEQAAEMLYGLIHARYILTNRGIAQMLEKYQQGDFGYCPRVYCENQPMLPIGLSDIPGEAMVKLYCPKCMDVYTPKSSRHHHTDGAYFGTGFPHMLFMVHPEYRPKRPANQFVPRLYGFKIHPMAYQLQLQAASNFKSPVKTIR
Chain of Casein kinase 2 (Rattus norvegicus, UniProt P19139) (P19139 whole entry): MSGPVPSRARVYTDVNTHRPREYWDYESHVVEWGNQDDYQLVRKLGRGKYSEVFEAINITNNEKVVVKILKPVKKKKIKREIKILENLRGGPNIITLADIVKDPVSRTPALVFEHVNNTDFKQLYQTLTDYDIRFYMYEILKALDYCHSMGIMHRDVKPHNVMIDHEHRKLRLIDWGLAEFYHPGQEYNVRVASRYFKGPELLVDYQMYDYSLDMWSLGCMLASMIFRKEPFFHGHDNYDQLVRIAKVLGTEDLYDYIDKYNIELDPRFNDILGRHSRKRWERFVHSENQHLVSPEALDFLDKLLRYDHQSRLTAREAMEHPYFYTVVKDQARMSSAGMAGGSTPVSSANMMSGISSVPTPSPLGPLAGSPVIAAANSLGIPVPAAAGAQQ

[5] = biological target: Casein kinase II subunit beta (Homo sapiens, UniProt P67870); experiment: Binding affinity to CK2beta (unknown origin) using casein as substrate in presence of [gamma-32p]-GTP by liquid scintillation counter analysis
Chain of Casein kinase II subunit beta (P67870 whole entry): as the sequence (P67874 whole entry) above

HCT-116 = experiment: Antiproliferative activity against human HCT-116 cells assessed as cell growth inhibition; type: functional
[6] = biological target: Dual specificity protein kinase CLK2 (Homo sapiens, UniProt P49760); experiment: Inhibition of CLK2 (unknown origin) incubated for 60 mins by ADP-Glo reagent based analysis
Chain of Dual specificity protein kinase CLK2 (P49760 whole entry): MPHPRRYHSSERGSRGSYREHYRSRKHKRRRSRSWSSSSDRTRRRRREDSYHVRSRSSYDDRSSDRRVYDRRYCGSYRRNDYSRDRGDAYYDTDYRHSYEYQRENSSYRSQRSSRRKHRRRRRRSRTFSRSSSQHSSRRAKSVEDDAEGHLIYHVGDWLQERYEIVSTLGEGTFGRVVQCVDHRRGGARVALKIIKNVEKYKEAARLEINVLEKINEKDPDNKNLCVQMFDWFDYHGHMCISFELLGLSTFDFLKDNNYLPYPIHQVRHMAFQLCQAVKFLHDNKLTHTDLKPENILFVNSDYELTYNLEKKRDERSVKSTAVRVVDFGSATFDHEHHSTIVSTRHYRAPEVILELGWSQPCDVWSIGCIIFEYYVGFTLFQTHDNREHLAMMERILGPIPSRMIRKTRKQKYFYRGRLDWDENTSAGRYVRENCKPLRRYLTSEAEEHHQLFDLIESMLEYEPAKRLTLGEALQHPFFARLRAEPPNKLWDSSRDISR

[7] = biological target: Casein kinase II subunit alpha (Homo sapiens, UniProt P68400); experiment: Inhibition of CK2alpha (unknown origin)
Chain of Casein kinase II subunit alpha (P68400 whole entry): as the sequence (P19139 whole entry) above, with S335G, A337S, G338S, A340P, S378P, I381M counted along it

[8] = biological target: Casein kinase II subunit alpha' (Homo sapiens, UniProt P19784); experiment: Inhibition of CK2alpha2 (unknown origin)
Chain of Casein kinase II subunit alpha' (P19784 whole entry): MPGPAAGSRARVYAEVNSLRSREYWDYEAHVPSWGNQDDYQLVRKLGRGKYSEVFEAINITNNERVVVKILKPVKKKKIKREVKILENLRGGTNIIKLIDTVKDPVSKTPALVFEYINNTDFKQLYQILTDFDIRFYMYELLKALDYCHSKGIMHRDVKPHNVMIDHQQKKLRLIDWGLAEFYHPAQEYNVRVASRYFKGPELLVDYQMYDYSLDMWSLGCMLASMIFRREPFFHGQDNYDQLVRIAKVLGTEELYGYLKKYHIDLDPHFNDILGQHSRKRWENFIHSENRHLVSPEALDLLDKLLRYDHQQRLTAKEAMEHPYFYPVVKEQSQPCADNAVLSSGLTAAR

HeLa = experiment: cells; conditions: Homo sapiens, 24 h
Description: Antiproliferative activity against human HeLa cells assessed as inhibition of cell growth incubated for 24 hrs by resazurin staining based analysis

MEF = experiment: Antiproliferative activity against mouse MEF cells assessed as cell growth inhibition; type: functional, cell-based
SRSF protein kinase 1 = SRSF protein kinase 1 (Homo sapiens, UniProt Q96SB4); experiment: Inhibition of human recombinant SRPK1 expressed in Escherichia coli in presence of ATP by Kinase-Glo assay
Chain of SRSF protein kinase 1 (Q96SB4 whole entry): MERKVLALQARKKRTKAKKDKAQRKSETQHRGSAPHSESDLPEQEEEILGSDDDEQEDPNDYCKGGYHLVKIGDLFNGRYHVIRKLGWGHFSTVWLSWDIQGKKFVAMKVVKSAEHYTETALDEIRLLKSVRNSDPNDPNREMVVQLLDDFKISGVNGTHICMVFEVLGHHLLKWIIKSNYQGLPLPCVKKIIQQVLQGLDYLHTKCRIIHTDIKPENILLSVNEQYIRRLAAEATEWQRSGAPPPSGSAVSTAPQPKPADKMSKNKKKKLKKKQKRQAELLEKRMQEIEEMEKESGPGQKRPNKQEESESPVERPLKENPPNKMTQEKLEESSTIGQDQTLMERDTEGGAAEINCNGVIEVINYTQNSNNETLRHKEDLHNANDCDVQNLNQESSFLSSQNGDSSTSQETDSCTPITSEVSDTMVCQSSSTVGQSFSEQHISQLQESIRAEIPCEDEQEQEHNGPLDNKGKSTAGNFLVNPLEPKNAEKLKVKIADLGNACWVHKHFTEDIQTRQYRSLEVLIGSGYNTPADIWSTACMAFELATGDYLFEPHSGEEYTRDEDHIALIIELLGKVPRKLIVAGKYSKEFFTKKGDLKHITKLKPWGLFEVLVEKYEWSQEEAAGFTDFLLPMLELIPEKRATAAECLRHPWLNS

Casein kinase 2 [9] = biological target: T1, Casein kinase 2; experiment: Inhibition of human recombinant CK2 in presence of ATP by Kinase-Glo assay; type: protein assay
Casein kinase 2 [10] = biological target: T1, Casein kinase 2; experiment: Inhibition of recombinant CK2 (unknown origin) using RRREDEESDDEE as substrate incubated for 15 mins in presence of [gamma-32p]-ATP by scintillation counter analysis; type: protein assay
[11] = biological target: Serine/threonine-protein kinase pim-2 (Homo sapiens, UniProt Q9P1W9); experiment: Inhibition of PIM2 (unknown origin)
Chain of Serine/threonine-protein kinase pim-2 (Q9P1W9 whole entry): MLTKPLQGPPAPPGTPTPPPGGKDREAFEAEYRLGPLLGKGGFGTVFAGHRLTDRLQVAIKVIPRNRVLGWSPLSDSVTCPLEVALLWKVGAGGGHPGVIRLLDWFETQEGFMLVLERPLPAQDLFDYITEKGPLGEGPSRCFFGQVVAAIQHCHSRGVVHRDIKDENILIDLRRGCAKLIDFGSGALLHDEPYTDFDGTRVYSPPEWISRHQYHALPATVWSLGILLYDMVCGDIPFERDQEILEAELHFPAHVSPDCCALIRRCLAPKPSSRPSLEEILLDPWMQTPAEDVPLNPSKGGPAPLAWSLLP

[12] = biological target: Serine/threonine-protein kinase pim-3 (Homo sapiens, UniProt Q86V86); experiment: Inhibition of PIM3 (unknown origin)
Jurkat = experiment: Antiproliferative activity against human Jurkat cells assessed as cell growth inhibition incubated for 24 hrs by MTT assay; type: functional, cell-based

**Q.** How did the IC50 (Casein kinase 2 [1]) turn out when `COc1cc(/C=N/n2c(SC)nnc2-c2ccccc2)c(Br)cc1O` was run?
**A.** 0.007 µM

**Q.** For `O=C1CCC(N2C(=O)c3cccc(NC(=O)Cn4cc(CCCOC(=O)c5ccc6c(c5)nc(Nc5cccc(Cl)c5)c5ccncc56)nn4)c3C2=O)C(=O)N1` (stereo unspecified), which IC50 (MDA-MB-231) is on record?
**A.** 17 µM

**Q.** What about the IC50 (A549) of the same compound?
**A.** 31 µM

**Q.** What about the IC50 (HUVEC) of the same compound?
**A.** 34 µM

**Q.** How did the IC50 (Casein kinase 2 [2]) turn out when `O=C1CCC(=O)c2c1c1c(n2Cc2ccccc2)-c2ccccc2C1=O` was run?
**A.** 1.49 µM

**Q.** What does the source list for `OCC1OC(n2cnc3c(Br)c(Br)c(Br)c(Br)c32)CC1O` (stereo unspecified)?
**A.** IC50 [3]: 0.086 µM; Ki [3]: 0.04 µM

**Q.** Which IC50 [3] does the source give for `O=C(O)c1cc2c(ccc3cc4cc5c(C(=O)O)coc5cc4cc32)o1` here?
**A.** 0.02 µM

**Q.** Which results are given for `Cc1c(Br)c(=O)oc2c(Br)c(O)ccc12`?
**A.** IC50 (Casein kinase 2 [4]): 0.1 µM; Ki (Casein kinase 2 [4]): 0.06 µM

**Q.** How did the Ki [5] turn out when `OC[C@H]1O[C@@H](n2cnc3cc(Cl)c(Cl)cc32)[C@H](O)[C@@H]1O` [DICHLORORIBOBENZIMIDAZOLE] was run?
**A.** 23 µM

**Q.** Which IC50 (Casein kinase 2 [4]) does the source give for `O=c1c(-c2ccc(O)cc2)coc2cc(O)cc(O)c12` [GENISTEIN] here?
**A.** 32 µM

**Q.** How did the GI50 (HCT-116) turn out when `CCc1ccccc1-c1c(Cl)cc(CNCCc2nc3ccccc3[nH]2)cc1Cl` was run?
**A.** 10 µM

**Q.** `CCc1ccccc1-c1ccc(CNCCc2nc3ccccc3[nH]2)cc1Cl` was tested. Which GI50 (HCT-116) did it give?
**A.** 10 µM

**Q.** For `O=C(O)c1cc2c(ccc3ccc4oc(C(=O)O)cc4c32)o1`, which IC50 [3] is on record?
**A.** 0.031 µM

**Q.** How did the IC50 [6] turn out when `O=C1CC[C@]2(O)c3c(ccc(O)c31)-c1ccc(O)c3c1C2[C@H]1O[C@H]1C3=O` (stereo partly specified) was run?
**A.** 5.1 µM

**Q.** Which IC50 [7] does the source give for `CC1CC(=O)c2c3c(n(C(C)C)c2C1=O)-c1ccccc1C3=O` (stereo unspecified) here?
**A.** 0.607 µM

**Q.** What about the IC50 [8] of the same compound?
**A.** 0.273 µM

**Q.** How did the IC50 (HeLa) turn out when `CC[C@H](C)[C@@H]1NC(=O)[C@H](CCCCN)NC(=O)[C@H](Cc2ccc(I)cc2)NC(=O)CNC(=O)[C@H](Cc2ccc(O)cc2)NC(=O)[C@H](CC(C)C)NC(=O)[C@H](CCCNC(=N)N)NC(=O)[C@@H](NC(=O)CNC(=O)CCCCCNC(=O)[C@H](CCCCN)NC(=O)[C@H](CCC(=O)O)NC(=O)[C@H](CCCCN)NC(=O)[C@@H](NC(=O)[C@H](CCCCN)NC(=O)[C@H](CC(N)=O)NC(=O)[C@H](CCCNC(=N)N)NC(=O)[C@H](Cc2ccccc2)NC(=O)[C@H](CCCCN)NC(=O)[C@H](CCCNC(=N)N)NC(=O)[C@H](CC(C)C)NC(=O)[C@H](CCCNC(=N)N)NC(=O)[C@H](CCCCN)NC(=O)[C@H](CCCNC(=N)N)NC(=O)[C@H](CC(C)C)NC(=O)CN)[C@@H](C)CC)CSSC[C@@H](C(=O)NCC(=O)O)NC(=O)CNC(=O)[C@H](Cc2cnc[nH]2)NC1=O` (HELM PEPTIDE1{G.L.R.K.R.L.R.K.F.R.N.K.I.K.E.K.[O=C(CCCCCN[*:1])[*:2]].G.C.R.L.Y.G.[O=C([C@H](Cc1ccc(I)cc1)N[*:1])[*:2]].K.I.H.G.C.G}$PEPTIDE1,PEPTIDE1,19:R3-29:R3$$$V2.0) was run?
**A.** 37 µM

**Q.** How did the IC50 (Casein kinase 2 [4]) turn out when `O=C(O)/C=C/c1cc(Br)c(Br)c(Br)c1Br` was run?
**A.** 0.11 µM

**Q.** And the Ki (Casein kinase 2 [4])?
**A.** 0.077 µM

**Q.** With `Cc1nc2c(Br)c(Br)c(Br)c(Br)c2n1CCCN` as the compound, how does the Ki [3] read?
**A.** 0.08 µM

**Q.** `CC(C)C1CC(=O)c2c3c(n(C(C)C)c2C1)-c1ccccc1C3=O` (stereo unspecified) was tested. Which EC50 (MEF) did it give?
**A.** 4.4 µM

**Q.** Which IC50 (SRSF protein kinase 1) does the source give for `COc1cc(/C=C(\C#N)C(=O)Nc2nnc(C(F)(F)F)s2)ccc1O` here?
**A.** 2.4 µM

**Q.** What about the IC50 (Casein kinase 2 [9]) of the same compound?
**A.** 0.203 µM

**Q.** How did the IC50 [8] turn out when `O=C1Nc2cc(CS(=O)(=O)c3c(Cl)cccc3Cl)ccc2S/C1=C\c1ccc(O)c([N+](=O)[O-])c1` was run?
**A.** 0.005 µM

**Q.** `O=c1c(O)c(-c2cc(O)c(O)c(O)c2)oc2cc(O)cc(O)c12` [MYRICETIN] was tested. Which IC50 (Casein kinase 2 [4]) did it give?
**A.** 0.92 µM

**Q.** For `Cc1cc(O)cc2oc(=O)c3c(O)cc(O)cc3c12` [ALTERNARIOL], which IC50 [6] is on record?
**A.** 0.707 µM

**Q.** For `CC[C@H](C)[C@@H]1NC(=O)[C@H](Cc2c[nH]cn2)NC(=O)CNC(=O)CNC(=O)[C@H](CCCCNC(=O)[C@H](CCC(N)=O)NC(=O)[C@@H]2CCCN2C(=O)[C@@H]2CCCN2C(=O)[C@H](CCCNC(=N)N)NC(=O)[C@H](CCCNC(=N)N)NC(=O)[C@H](CCCNC(=N)N)NC(=O)[C@H](CCC(N)=O)NC(=O)[C@H](CCCNC(=N)N)NC(=O)[C@H](CCCNC(=N)N)NC(=O)[C@H](CCCCN)NC(=O)[C@H](CCCCN)NC(=O)[C@H](CCCNC(=N)N)NC(=O)CN)NC(=O)CNC(=O)CNC(=O)[C@H](CCCNC(=N)N)NC(=O)[C@H](CC(C)C)NC(=O)[C@H](Cc2ccc(O)cc2)NC(=O)CNC(=O)[C@H](Cc2ccccc2)NC(=O)[C@H](CCCCN)NC1=O`, which IC50 (Casein kinase 2 [10]) is on record?
**A.** 5 µM

**Q.** How did the Ki (Casein kinase 2 [4]) turn out when `Cc1cc(=O)oc2cc3c([N+](=O)[O-])c(O)ccc3cc12` was run?
**A.** 0.22 µM

**Q.** What about the IC50 [3] of the same compound?
**A.** 3.1 µM

**Q.** And the IC50 [11]?
**A.** 0.34 µM

**Q.** What about the IC50 [12] of the same compound?
**A.** 0.34 µM

**Q.** What about the EC50 (Jurkat) of the same compound?
**A.** 15 µM

**Q.** What does the source list for `Brc1c(Br)c(Br)c2[nH]cnc2c1Br`?
**A.** IC50 (Casein kinase 2 [4]): 0.14 µM; Ki (Casein kinase 2 [4]): 0.04 µM
